Each structure is given as a SMILES string.

Series [1] has as its system Skin. The settings on record: GB17149.2-1997.
Series [2] has as its system human primary fibroblasts FB. The experiment in a line: Synthesis test of type I collagen of fibroblast. Format: cell-based. The settings on record: 24.25 μM/10 ppm; FB supernatant, ELISA. How it is done:
According to Anti-wrinkly and Firming Lifting Efficacy Test of Cosmetics—In vitro Test Method of Collagen I Contents with fibroblasts (Association Standard T/SHRH 032-2020), human primary fibroblasts FB were used to measure influence of each raw material group on collagen secretion of FB at a concentration (24.25 μM/10 ppm).
The plate was placed in a carbon dioxide incubator for incubation for 24 h+2 h. After incubation was finished, 200 μL of cell culture supernatant was collected per well in a 1.5 mL sterile centrifuge tube, and stored frozen in an ultra-low temperature freezer at −80° C.
Human type I collagenase immunization kit was used for ELISA detection. First, a standard was used for detection and a standard curve was plotted, and then a collagen content contained in the fibroblast supernatant diluted at an appropriate ratio was measured.

The test system of another series is rabbit corneal cell SIRC. The series is described as follows: SIRC corneal cell irritation test (ocular irritation SIRC model). The format is cell-based. How it is done: Detection method was rabbit corneal cell SIRC cell viability test. To-be-tested cells were washed 1˜2 times with PBS. 100 μL of MEM complete medium and 10 μL of CCK-8 solution were added to each well, and placed in a carbon dioxide incubator, for incubation of 2˜4 h. The absorbancy (OD) value was measured at 450 nm wavelength. CCK-8 reagent can be replaced with MTT.

The next series has as its system Blood cell. The settings on record: Toxicology in Vitro 13 (1999) 343~354.
The test system of series [3] is Skin. The experiment in a line: Efficacy for actual volunteer population (skin elasticity and skin tone, CK instrument). The format is in vivo, human. The settings on record: 20 ppm in basic cream, whole face; 14th and 28th days. The source says:
Test population: experimental group of 15 people, placebo group of 15 people (31-54 years old, female).
Method of use: volunteers used the cream once every morning and evening, with 1 g per use, and uniformly applied the cream on the whole face.
Test instrument: CK instrument.
Test method: using cutometer and Colorimeter probes of the CK instrument to respectively perform a skin elasticity test and a skin tone test on a random side cheek of each volunteer, in a constant-temperature and constant-humidity environment, […]

Another series deals with B16 mouse melanoma cells. The experiment in a line: Measurement of melanin content in α-MSH-induced B16 cells. Format: cell-based. The settings on record: for melanin inhibition (in words): 24.25 μM (about 10 ppm), inducer 0.1 μg/mL (63 nM) α-MSH. How it is done:
(§1) A method for in vitro testing whitening efficacy for B16 mouse melanoma cells was designed according to Association Standard T/SHRH 021-2019 for cosmetics whitening efficacy test, in combination with NCBI and CNKI literature research:
Cell samples having been treated by the inducer (α-MSH) and the to-be-tested substance were placed in a 6-well cell culture plate. 0.5˜2 mL of cell lysate was added. The culture plate was allowed to stand in a 65° C. constant-temperature oven for 2 h. Then, after the lysate was uniformly mixed, the lysate was added to a 96-well assay plate at 150 μL/well. The absorbancy (OD) value was measured at 450 nm wavelength.

The subject of series [4] is Human immortalized keratinocytes HaCaT. The note with it: 24.25 μM; HaCaT cells. How it is done:
It was tested whether ATP in HaCaT cells would be affected by EAC-L-carnosine. Human immortalized keratinocytes HaCaT having been treated with the test substance were fully lysed using a certain amount of cell lysate, and centrifuged at 4° C. and 12000 g for 5 min. Supernatant was taken, and cell lysis samples of each experimental group were added to a 96-well assay plate (opaque) at 20 μL/well. ATP detection solution was further added at 100 μL/well. The plate was left to stand at room temperature for 3˜5 min. Self-luminescence intensity was detected using a full-waveband plate reader.

The next series addresses T1, tyrosinase (Mus musculus, UniProt P11344).
T1 construct: endogenous in cells; host or cells: B16 mouse melanoma cells
T1 sequence (P11344 19-533): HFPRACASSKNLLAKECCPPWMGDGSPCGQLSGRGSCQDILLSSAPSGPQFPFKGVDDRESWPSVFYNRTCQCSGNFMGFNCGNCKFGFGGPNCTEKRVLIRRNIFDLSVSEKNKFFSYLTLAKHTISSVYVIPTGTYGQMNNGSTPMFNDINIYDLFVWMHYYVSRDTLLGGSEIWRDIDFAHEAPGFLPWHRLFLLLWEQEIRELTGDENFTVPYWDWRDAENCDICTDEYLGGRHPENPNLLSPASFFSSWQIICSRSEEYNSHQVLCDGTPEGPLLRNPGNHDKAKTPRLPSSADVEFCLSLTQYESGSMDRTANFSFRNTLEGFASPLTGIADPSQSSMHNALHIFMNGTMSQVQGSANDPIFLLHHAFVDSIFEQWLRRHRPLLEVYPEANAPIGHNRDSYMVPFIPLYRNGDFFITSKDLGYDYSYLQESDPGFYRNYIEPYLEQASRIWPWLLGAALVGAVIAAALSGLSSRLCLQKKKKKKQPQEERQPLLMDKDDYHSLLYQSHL
The series is described as follows: Enzyme activity test for tyrosinase in α-MSH-induced B16 cells. Format: cell-based. The note with it: 24.25 μM/10 ppm; inducer 0.1 μg/mL (63 nM) α-MSH. How it is done:
as §1
Cell samples having been treated by an inducer (α-MSH) and a to-be-tested substance were placed in a 96-well cell culture plate, for repeated freeze-thawing lysis. To each well 100 μL of 0.1˜0.5% levodopa was added, incubation was performed in a 37° C. cell incubator for about 2 h. the absorbancy (OD) value was measured at 450 nm wavelength.

The next series relates to H2O2-induced HaCaT cells. The series is described as follows: Anti-aging repair test for stratum corneum cell under oxidative stress (H2O2). Format: cell-based, human. The settings on record: 24 h sample repair after H2O2 damage. The source says:
In order to study the anti-aging repair efficacy of the raw material of the present disclosure to stratum corneum cell under oxidative stress, according to Anti-wrinkly and Firming Lifting Efficacy Test of Cosmetics—In vitro Test Method of Reactive Oxygen Species (ROS) Inhibition with keratinocytes (Association Standard T/SHRH 032-2020), oxidative damage cell models were constructed with H2O2-induced HaCaT cells, and relative proliferation rate and ROS expression quantity of the cells were respectively measured.
Washing was performed for 3˜5 times with a serum-free culture medium. 100 μL of serum-free culture medium was added.

Series [5] concerns HFF human foreskin fibroblast. The experiment in a line: Fibroblast anti-aging repair test under UVA photoaging stress. Format: cell-based. The note with it: about 24 μM/10 ppm; UVA 5 J/cm^2. How it is done: 100 μL of serum-free culture medium was added.
HYP (cell lysate) content detection: a hydroxyproline (HYP) content detection kit was used. First, a HYP standard was used for detection and a standard curve was plotted, and then a HYP […] content contained in the fibroblast lysate diluted at an appropriate ratio was measured.
Type I collagen content detection: human type I collagenase (Col I) immunization kit was used for ELISA detection. First, a type I collagen standard was used for detection and a standard curve was plotted, and then a collagen content contained in the fibroblast supernatant diluted at an appropriate ratio was measured.

Series [6] deals with Human immortalized keratinocytes HaCaT. The settings on record: about 24 μM/10 ppm; UVA 15 J/cm^2. How it is done:
The plate was placed under a specific ultraviolet device, and UVA irradiation dose was 15 J/cm^2. After the induction was completed, the drug-containing PBS was removed, and replaced with a culture medium containing the to-be-tested sample, and they were placed in a carbon dioxide incubator.
ROS detection: after 24 h, a certain amount of DCFH-DA working solution was used in replacement. Incubation was performed in the dark for 15˜30 min. Washing was performed for 3˜5 times with serum-free culture medium. 100 μL of serum-free culture medium was added.
Cell viability detection: after 24 h, a serum-free culture medium containing 10% of CCK-8 was used in replacement. After incubation of 2˜4 h in a carbon dioxide incubator, an OD value was detected at 450 nm wavelength.
HaCat with damage induced by a certain dose of UVA was chosen, to construct a keratinocyte UVA damage cell model.

For the next series, the system named is 3T3 cell. The settings on record: GB/T 21769-2008.

Take `CCOC1=C(O)C(=O)O[C@@H]1[C@@H](O)COC(=O)[C@H](Cc1c[nH]cn1)NC(=O)CCN` [Example 1, 3-O-ethyl ascorbic acid-L-carnosine]: the “Test Conclusion, Skin patch test and trial test” value with Skin [1] was “pass”. The “collagen I generation versus EAC, dipeptide monomer and their mixture” value in series [2] was “more significant effect on promoting collagen generation”. Moreover, the SIRC irritation conclusion entry in the series with rabbit corneal cell SIRC (10 ppm solution sample) is recorded as “no irritant”. For the same molecule, the “CSR (SIRC cell viability)” value in the series on rabbit corneal cell SIRC (10 ppm solution sample, SN/T 3084.2-2014) is on record as 106.0. For the same molecule, in the series on rabbit corneal cell SIRC (OECD 491), the “Test Conclusion, Ocular irritation SIRC model” value is listed as “pass”. The “Test Conclusion, Blood cell hemolysis test model” value with Blood cell was “pass”. Besides, the HET-CAM irritation conclusion result in the series with chorioallantoic membrane (10 ppm solution sample) is on record as “non-irritant”. Further, the “IS (HET-CAM)” value in the series with chorioallantoic membrane (10 ppm solution sample, SN/T 2329-2009) worked out at 0. For the same molecule, the “Test Conclusion, Ocular irritation HET-CAM model” value with chorioallantoic membrane (SN329-2009) is on record as “pass”. Moreover, the “ITA skin tone of the test group population” value with Skin [3] is “significant trend of elevation”. The “melanin inhibition (in words)” value in the series with B16 mouse melanoma cells (listed as EAC-L-Carnosine) was “significant effect of inhibiting melanin secretion”. For the same molecule, in the series on B16 mouse melanoma cells (listed as EAC-L-carnosine), the “melanin inhibition (in words)” value was “significantly improved capability of inhibiting final melanin”. For the same molecule, the “down-regulation of melanin secretion” value in the series with B16 mouse melanoma cells (24.25 μM, B16 cells, α-MSH inducer) turned out to be 27.85%. The “improvement of ATP expression compared with blank group” value in [4] is listed as 25.0%. For the same molecule, on tyrosinase, the “tyrosinase inhibition versus EAC, L-carnosine and their physical mixture” value is recorded as “better capability of inhibiting tyrosinase”. In the series on H2O2-induced HaCaT cells, the “ROS expression quantity after H2O2 damage” value was “significantly down-regulate the ROS expression quantity” and the “cell activity after H2O2 damage” value was “significantly improve cell activity”. Moreover, in [5], the “activity of fibroblasts after UVA irradiation” value is reported as “significantly up-regulating the activity of fibroblasts after UVA irradiation”; the “generation of free radical ROS after UVA, HFF” value is recorded as “significantly inhibiting the generation of free radical ROS”; the “hydroxyproline HYP after UVA, HFF” value is “significantly activating collagen precursor hydroxyproline HYP”. Also, in series [6], the “activity of keratinocytes after UVA irradiation” value is “up-regulating the activity of keratinocytes after UVA irradiation”; the “generation of free radical ROS after UVA, HaCaT” value is given as “significantly inhibiting the generation of free radical ROS”; the “hydroxyproline HYP after UVA, HaCaT” value is “significantly activating collagen precursor hydroxyproline HYP”. For the same molecule, the “Test Conclusion, Phototoxicity 3T3 cell model” value in the series on 3T3 cell was “pass”.

These data come from US20240261204A1, “ASCORBIC ACID POLYPEPTIDE DERIVATIVE, PREPARATION METHOD THEREFOR, AND APPLICATION THEREOF” (HARVEST BIOTECH CO., LTD, priority 2021, published 2024).
